Data set [1] deals with T1, recombinant human mGluR4a receptors (Homo sapiens, UniProt Q14833).
T1 construct: expressed in transfected cells
In words: mGluR4 assay on HEK-expressing human mGluR4: fluorescent cell based Ca2+ mobilization assay (FLIPR). Particulars: HEK-293 cells expressing hmGluR4; enhancement of EC25 glutamate response; mean of at least three independent experiments in duplicate; read-out: Ca^2+ Flux (mean EC50). From the text: mGluR4 Assay on HEK-Expressing Human mGluR4
The compounds of the present invention are positive allosteric modulators of mGluR4 receptor. Their activity was examined on recombinant human mGluR4a receptors by detecting changes in intracellular Ca^2+ concentration, using the fluorescent Ca^2+-sensitive dye Fluo-4-(AM) and a Fluorometric Imaging Plate Reader (FLIPR, Molecular Devices, Sunnyvale, Calif.).
The cDNA encoding the human metabotropic glutamate receptor (hmGluR4), (accession number NM_000841.1, NCBI Nucleotide database browser), was subcloned into an expression vector containing also the hygromycin resistance gene. In parallel, the cDNA encoding a G protein allowing redirection of the activation signal to intracellular calcium flux was subcloned into a different expression vector containing also the puromycin resistance gene. Transfection of both these vectors into HEK293 cells with PolyFect reagent (Qiagen) according to supplier's protocol, and hygromycin and puromycin treatment allowed selection of antibiotic resistant cells which had integrated stably one or more copies of the plasmids. Positive cellular clones expressing hmGluR4 were identified in a functional assay measuring changes in calcium fluxes in response to glutamate or selective known mGluR4 orthosteric agonists and antagonists. HEK-293 cells expressing hmGluR4 were maintained in media containing DMEM, dialyzed Fetal Calf Serum (10%), Glutamax™ (2 mM), Penicillin (100 units/mL), Streptomycin (100 μg/mL), Geneticin (100 μg/mL) and Hygromycin-B (40 μg/mL) and puromycin (1 μg/mL) at 37° C./5% CO2.
Human mGluR4HEK-293 cells were plated out 24 hours prior to FLIPR^384 assay in black-walled, clear-bottomed, poly-L-ornithine-coated 384-well plates at a density of 25,000 cells/well in a glutamine/glutamate free DMEM medium containing foetal bovine serum (10%), penicillin (100 units/mL) and streptomycin (100 μg/mL) at 37° C./5% CO2.
On the day of the assay, the medium was aspirated and the cells were loaded with a 3 μM solution of Fluo-4-AM (LuBioScience, Lucerne, Switzerland) in 0.03% pluronic acid. After 1 hour at 37° C./5% CO2, the non incorporated dye was removed by washing cell plate with the assay buffer and the cells were left in the dark at room temperature for […] before testing. All assays were performed in a pH 7.4 buffered-solution containing 20 mM HEPES, 143 mM NaCl, 6 mM KCl, 1 mM MgSO4, 1 mM CaCl2, 0.125 mM sulfapyrazone and 0.1% glucose.
After 10 s of basal fluorescence recording, various concentrations of the compounds of the invention were added to the cells. Changes in fluorescence levels were first monitored for 180 s in order to detect any agonist activity of the compounds. Then the cells were stimulated by an EC25 glutamate concentration for an additional 110 s in order to measure enhancing activities of the compounds of the invention. EC25 glutamate concentration is the concentration giving 25% of the maximal glutamate response.
The concentration-response curves of representative compounds of the present invention were generated using the Prism GraphPad software (Graph Pad Inc, San Diego, USA). The curves were fitted to a four-parameter logistic equation: (Y=Bottom+(Top−Bottom)/(1+10^((LogEC50−X)*Hill Slope) allowing the determination of EC50 values.
The Table 3 below represents the mean EC50 obtained from at least three independent experiments of selected molecules performed in duplicate.

T1 sequence (Q14833 33-912): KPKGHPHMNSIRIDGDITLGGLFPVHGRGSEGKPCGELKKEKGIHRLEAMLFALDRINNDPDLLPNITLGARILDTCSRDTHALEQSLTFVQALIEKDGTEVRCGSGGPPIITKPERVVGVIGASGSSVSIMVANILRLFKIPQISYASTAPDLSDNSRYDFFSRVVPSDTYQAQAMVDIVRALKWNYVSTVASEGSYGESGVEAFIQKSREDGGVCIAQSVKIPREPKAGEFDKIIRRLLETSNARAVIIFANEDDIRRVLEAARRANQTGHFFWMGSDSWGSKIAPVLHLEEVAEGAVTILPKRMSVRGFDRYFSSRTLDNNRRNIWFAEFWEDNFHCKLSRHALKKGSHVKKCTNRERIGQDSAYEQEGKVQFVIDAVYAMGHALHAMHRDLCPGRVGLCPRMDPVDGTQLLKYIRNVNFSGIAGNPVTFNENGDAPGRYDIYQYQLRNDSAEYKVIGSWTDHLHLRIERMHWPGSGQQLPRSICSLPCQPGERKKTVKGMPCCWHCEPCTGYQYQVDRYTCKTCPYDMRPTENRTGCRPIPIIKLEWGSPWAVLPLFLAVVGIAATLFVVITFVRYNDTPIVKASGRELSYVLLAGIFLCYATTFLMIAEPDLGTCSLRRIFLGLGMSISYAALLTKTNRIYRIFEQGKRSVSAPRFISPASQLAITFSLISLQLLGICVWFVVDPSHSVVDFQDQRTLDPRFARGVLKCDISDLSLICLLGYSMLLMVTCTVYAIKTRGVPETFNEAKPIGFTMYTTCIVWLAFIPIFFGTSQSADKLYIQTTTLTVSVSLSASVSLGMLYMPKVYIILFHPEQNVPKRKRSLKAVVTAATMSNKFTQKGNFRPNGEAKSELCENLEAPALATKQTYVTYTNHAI

A word on the melting point: it is the temperature of the solid-liquid transition. `Fc1cccc(Nc2nc3c(s2)CCCc2[nH]ncc2-3)n1`: the melting point is 314 °C (dec.). Usually EC50 stands for the concentration giving half of the maximal effect. Consider `c1ccc(Nc2nc3c(s2)CCc2[nH]ncc2-3)nc1` [Compound 1-1, N-(Pyridin-2-yl)-5,6-dihydro-4H-thiazolo[4,5-e]indazol-2-amine], for which the melting point is 297 to 299 °C. Besides, the EC50 in data set [1] was below 100 nM.

`CC(C)C(=O)n1ncc2c1CCc1sc(Nc3ccccn3)nc1-2` [Compound 1-2, 2-Methyl-1-(2-(pyridin-2-ylamino)-4H-thiazolo[4,5-e]indazol-6(5H)-yl)propan-1-one]: the melting point lay within 167 to 168 °C. Turning to `Cc1cccc(Nc2nc3c(s2)CCc2[nH]ncc2-3)n1` [Compound 1-3, N-(6-Methylpyridin-2-yl)-5,6-dihydro-4H-thiazolo[4,5-e]indazol-2-amine], the melting point was 280 °C. Besides, the EC50 in data set [1] lay in the range of 100 to 1000 nM. For the molecule `Clc1cccc(Nc2nc3c(s2)CCc2[nH]ncc2-3)n1` [Compound 1-4, N-(6-Chloropyridin-2-yl)-5,6-dihydro-4H-thiazolo[4,5-e]indazol-2-amine], the melting point is above 300 °C. In the case of `Fc1ccc(F)c(Nc2nc3c(s2)CCc2[nH]ncc2-3)c1` [Compound 1-5, N-(2,5-Difluorophenyl)-5,6-dihydro-4H-thiazolo[4,5-e]indazol-2-amine], the melting point was 270 °C (dec.). Moreover, in data set [1], the EC50 lay within 100 to 1000 nM. The molecule `Fc1cccc(Nc2nc3c(s2)CCc2[nH]ncc2-3)n1` [Compound 1-6, N-(6-Fluoropyridin-2-yl)-5,6-dihydro-4H-thiazolo[4,5-e]indazol-2-amine] showed a melting point above 300 °C. In addition, in data set [1], the EC50 is 100 to 1000 nM. Consider `c1ccc(Nc2nc3c(s2)CCCc2[nH]ncc2-3)nc1` [Compound 1-8, Pyridin-2-yl-(4,5,6,7-tetrahydro-3-thia-1,7,8-triaza-cyclopenta[e]azulen-2-yl)-amine], for which, in data set [1], the EC50 was below 100 nM. The molecule `CCC1Cc2[nH]ncc2-c2nc(Nc3ccccn3)sc21` (centres unmarked) [Compound 1-9, 4-Ethyl-N-(pyridin-2-yl)-5,6-dihydro-4H-thiazolo[4,5-e]indazol-2-amine] returned a melting point of 317 to 319 °C. On the same count and under the same terms, then `Fc1cccnc1Nc1nc2c(s1)CCc1[nH]ncc1-2` [Compound 1-10, N-(3-Fluoropyridin-2-yl)-5,6-dihydro-4H-thiazolo[4,5-e]indazol-2-amine], with 300 °C (dec.); and `Cc1cccc(Nc2nc3c(s2)CCCc2[nH]ncc2-3)n1` [Compound 1-11, (6-Methyl-pyridin-2-yl)-(4,5,6,7-tetrahydro-3-thia-1,7,8-triaza-cyclopenta[e]azulen-2-yl)-amine], with 312 °C (dec.); and `Fc1ccc(Nc2nc3c(s2)CCCc2[nH]ncc2-3)nc1` [Compound 1-12, (5-Fluoro-pyridin-2-yl)-(4,5,6,7-tetrahydro-3-thia-1,7,8-triaza-cyclopenta[e]azulen-2-yl)-amine], with 314 °C (dec.). For the molecule `Fc1cccnc1Nc1nc2c(s1)CCCc1[nH]ncc1-2` [Compound 1-13, (3-Fluoro-pyridin-2-yl)-(4,5,6,7-tetrahydro-3-thia-1,7,8-triaza-cyclopenta[e]azulen-2-yl)-amine], the melting point was 300 °C (dec.). Besides, the EC50 in data set [1] was below 100 nM.

Take `COc1cccc(Nc2nc3c(s2)CCCc2[nH]ncc2-3)n1` [Compound 1-14, (6-Methoxy-pyridin-2-yl)-(4,5,6,7-tetrahydro-3-thia-1,7,8-triaza-cyclopenta[e]azulen-2-yl)-amine]: the melting point is 300 °C (dec.). For the same molecule, the EC50 in data set [1] lay in the range of 1000 to 10000 nM. As to `Fc1ccc(Nc2nc3c(s2)CCc2[nH]ncc2-3)nc1` [Compound 1-15, N-(5-Fluoropyridin-2-yl)-5,6-dihydro-4H-thiazolo[4,5-e]indazol-2-amine], the melting point is 315 °C (dec.). For the molecule `Clc1cccc(Nc2nc3c(s2)CCCc2[nH]ncc2-3)n1` [Compound 1-16, (6-Chloro-pyridin-2-yl)-(4,5,6,7-tetrahydro-3-thia-1,7,8-triaza-cyclopenta[e]azulen-2-yl)-amine], the melting point is 314 °C (dec.). On the same count and under the same terms, in the case of `c1cnc(Nc2nc3c(s2)CCc2[nH]ncc2-3)cn1` [Compound 1-17, N-(Pyrazin-2-yl)-5,6-dihydro-4H-thiazolo[4,5-e]indazol-2-amine] it was above 330 °C. `c1n[nH]c2c1-c1nc(NC3CCCC3)sc1CC2` [Compound 1-18, N-Cyclopentyl-5,6-dihydro-4H-thiazolo[4,5-e]indazol-2-amine] yielded a melting point of 166 to 168 °C.

As to `c1n[nH]c2c1-c1nc(NC3CCC3)sc1CC2` [Compound 1-20, N-Cyclobutyl-5,6-dihydro-4H-thiazolo[4,5-e]indazol-2-amine], the melting point lay in the range of 144 to 146 °C. `c1n[nH]c2c1-c1nc(NC3CC3)sc1CCC2` [Compound 1-22, Cyclopropyl-(4,5,6,7-tetrahydro-3-thia-1,7,8-triaza-cyclopenta[e]azulen-2-yl)-amine] showed a melting point of 178 to 182 °C. The molecule `c1n[nH]c2c1-c1nc(NC3CCC3)sc1CCC2` [Compound 1-23, Cyclobutyl-(4,5,6,7-tetrahydro-3-thia-1,7,8-triaza-cyclopenta[e]azulen-2-yl)-amine] yielded a melting point of 198 to 221 °C. Take `c1n[nH]c2c1-c1nc(NC3CCCC3)sc1CCC2` [Compound 1-24, Cyclopentyl-(4,5,6,7-tetrahydro-3-thia-1,7,8-triaza-cyclopenta[e]azulen-2-yl)-amine]: the melting point was 248 °C (dec.). With `c1cnc(Nc2nc3c(s2)CCCc2[nH]ncc2-3)nc1` [Compound 1-25, Pyrimidin-2-yl-(4,5,6,7-tetrahydro-3-thia-1,7,8-triaza-cyclopenta[e]azulen-2-yl)-amine], the melting point is 310 °C (dec.). With `c1cnc(Nc2nc3c(s2)CCc2[nH]ncc2-3)nc1` [Compound 1-26, N-(Pyrimidin-2-yl)-5,6-dihydro-4H-thiazolo[4,5-e]indazol-2-amine], the melting point was 281 to 282 °C. As to `Cn1ccc(Nc2nc3c(s2)CCCc2[nH]ncc2-3)n1` [Compound 1-27, (1-Methyl-1H-pyrazol-3-yl)-(4,5,6,7-tetrahydro-3-thia-1,7,8-triaza-cyclopenta[e]azulen-2-yl)-amine], the melting point was 288 to 293 °C. On the same count and under the same terms, then `Cc1ccnc(Nc2nc3c(s2)CCc2[nH]ncc2-3)n1` [Compound 1-29, N-(4-Methylpyrimidin-2-yl)-5,6-dihydro-4H-thiazolo[4,5-e]indazol-2-amine], with 283 °C (dec.); and `Cc1ccnc(Nc2nc3c(s2)CCCc2[nH]ncc2-3)n1` [Compound 1-30, (4-Methyl-pyrimidin-2-yl)-(4,5,6,7-tetrahydro-3-thia-1,7,8-triaza-cyclopenta[e]azulen-2-yl)-amine], with 297 °C (dec.). The molecule `CC1(C)Cc2[nH]ncc2-c2nc(Nc3ncccn3)sc21` [Compound 1-32, 4,4-Dimethyl-N-(pyrimidin-2-yl)-5,6-dihydro-4H-thiazolo[4,5-e]indazol-2-amine] registered a melting point of 298 to 306 °C. Still for that read-out and setting: in the case of `CC1Cc2[nH]ncc2-c2nc(Nc3ncccn3)sc21` (centres unmarked) [Compound 1-33, 4-Methyl-N-(pyrimidin-2-yl)-5,6-dihydro-4H-thiazolo[4,5-e]indazol-2-amine] it was above 373 °C.

The values are drawn from US8697744B2, “Substituted 5,6-dihydro-4H-thiazolo[4,5-E]indazoles and their use as positive allosteric modulators of metabotropic glutamate receptors” (Addex Pharma S.A., priority 2009, dated 2014).
